Experimental data: ChEMBL document CHEMBL1130123, “Optimization of 3-(1H-indazol-3-ylmethyl)-1,5-benzodiazepines as potent, orally active CCK-A agonists” (J Med Chem, 1997); call rule not given here

What was measured:
[1] = Maximum concentration at an intraduodenal dose of 5.2 mg/kg in rat; assay type: ADME, organism-based; parameters: dose 5.2 mg/kg, route intraduodenal; conditions: in vivo
[2] = Oral bioavailability in Long-Evans rats at an intravenous dose of 5.2 mg/kg; Not active; assay type: ADME, organism-based; conditions: rat, in vivo
[3] = Maximum concentration at an intravenous dose of 5.2 mg/kg; assay type: ADME, organism-based; parameters: dose 5.2 mg/kg, route intravenous; conditions: rat, in vivo
[4] = Oral bioavailability in Long-Evans rats at an intraduodenal dose of 5.2 mg/kg; assay type: ADME, organism-based; conditions: rat, in vivo, other: intraduodenal
[5] = Volume of distribution at steady state at an intravenous dose of 5.2 mg/kg in rat; assay type: ADME, organism-based; parameters: dose 5.2 mg/kg, route intravenous; conditions: in vivo, read-out: Vss
[6] = Total body clearance at an intravenous dose of 5.2 mg/kg in rat; assay type: ADME, organism-based; parameters: dose 5.2 mg/kg, route intravenous; conditions: in vivo
[7] = Half life period at an intravenous dose of 5.2 mg/kg in rat; assay type: ADME, organism-based; parameters: dose 5.2 mg/kg, route intravenous; conditions: in vivo
[8] = test system: Mus musculus; experiment: Maximal response at 1 nmol/kg peroral dose; assay type: functional

COc1ccc(N(C(=O)CN2C(=O)C(C)(Cc3n[nH]c4ccccc34)C(=O)N(c3ccccc3)c3ccccc32)C(C)C)cc1 (stereo not drawn)
Cmax [1]: 30 ng/mL | F [2]: Not Active | Cmax [3]: 3390 ng/mL | bioavailability [4]: 15% | Vd [5]: 4.31 L/kg | clearance [6]: 30 mL/min/kg | half-life [7]: 3.9 h | Max [8]: 28%
